Patent US10487112B2, “Pediococcus acidilactici derived antimicrobial hexapeptide and preparation method thereof” (Jiangnan University, priority 2016, dated 2019)
Read-outs that look alike come from different tables or passages of the source. No end group written: not given here.

Columns and labels:
[1] = Antioxidant capability, clearing hydroxyl radicals
Description: (§1) The feed contains a certain quantity of unsaturated fat, fatty acid, lipid-soluble vitamin, carotenoid and other lipid-soluble substances, which are easily oxidized in a storage process of the feed, and particularly fat and fatty acid can be oxidized to result in rancidity to generate different compounds such as aldehyde, alcohol, fat and acid which may generate various peculiar smells to seriously affect the palatability of the feed, and some compounds can generate adverse effects for the animals due to certain toxicity. The antioxidant capability of the lactein R16 to hydrogen peroxide, hydroxyl radicals, DPPH.radicals and superoxide anions is shown as FIG. 5.

[2] = Antioxidant capability, clearing superoxide anions
Description: as §1

[3] = Antioxidant capability, clearing hydrogen peroxide
Description: as §1

[4] = test system: Listeria monocytogenes CMCC(B)54002; test: Minimum inhibitory concentration (MIC) method; type: cell-based; settings: LB medium, 37° C., 18-24 h
Experimental: (§2) The antimicrobial activity is detected by adopting a minimum inhibitory concentration (MIC) method, and the operation is as follows:
(§3) (a) inoculating the bacteria into an LB liquid culture medium according to the inoculation amount of 1%, and carrying out shaking culture over the night at 37° C. and 200r·min^−1;
(§4) (b) inoculating the culture solution into 20 mL of the LB liquid culture medium according to the inoculation amount of 1%, and carrying out shaking culture at 37° C. and 200r·min′ until the OD600 is equal to about 0.5; […]
(§5) (e) adding 450 μL of the prepared bacterial suspension into an aseptic tissue culture plate, and then, respectively adding 50 μL of antimicrobial active substance diluents with corresponding concentrations to ensure that the concentrations of to-be-measured antimicrobial active substances are respectively 25.6, 12.8, 6.4, 3.2, 1.6, 0.8, 0.4, 0.2 and 0.1 mg·mL^−1; and carrying out culture in a 37° C. constant-temperature incubator for 18-24 h by taking 500 μL of the bacterial suspension as a positive control and 500 μL of the LB liquid culture medium as a negative control; and […]

[5] = test system: Escherichia coli; test: Stability of lactein R16 in pH (antimicrobial experiment after pH treatment); type: physicochemical
Experimental: 10 parts of purified active substance lactein R16 with the concentration of 100 mg·mL^−1 is selected, the pH of the lactein R16 is respectively regulated to be 1.0-10.0 by using 1.0 mol·L^−1 NaOH and 1.0 mol·L^−1 HCl, the lactein R16 is treated in a 37° C. water bath kettle for 2 h, then, the pH of the lactein R16 is regulated to be 4.5, and an antimicrobial experiment is performed to observe the inhibition of the lactein R16 to Escherichia coli. The result is shown as FIG. 2.
The antimicrobial activity of the lactein R16 is reduced step by step when the pH is 6.0-8.0, the reduction tendency is slow, and the residual activity is maintained at about 75%, which proves that the stability of the lactein R16 is reduced to a certain extent under such pH condition, but the pH has little influences on the stability of the lactein R16.

[6] = test system: Escherichia coli in the soybean meal; test: Inhibition of Escherichia coli in fermented soybean meal; type: cell-based; settings: 48 h; for removal rate: 37° C.
Experimental: (a) crushing soybean meal by using a blade crusher, adding 4 parts (the weight of each part is 40 g) of soybean meal with the serial numbers of group 5, group 6, group 7 and group 8 into a 500 mL fermentation flask, and carrying out sterilization at 105° C. for 10 min;
(b) carrying out fermentation under conditions shown as table 3.
(c) measuring the amount of Escherichia coli according to the natural standard for measuring Escherichia coli in the feed.
The inhibiting effect of the lactein R16 to Escherichia coli in the soybean meal is studied by adding Escherichia coli into the sterilized soybean meal.

[7] = Antioxidant capability, clearing DPPH radicals
Description: as §1

[8] = test system: Saccharomyces cerevisiae; test: Influences on probiotics, viable count; type: cell-based; settings: MRS medium with 6.4 mg·mL^−1, 37° C., 24 h
Experimental: (§6) Each of probiotics is subjected to two-stage activation, is inoculated into an MRS culture medium containing 6.4 mg·mL^−1 of antimicrobial active substances according to the inoculation amount of 1% and is cultured at the constant temperature of 37° C. for 24 h in contrast with the probiotics inoculated into the MRS culture medium. Coated plate counting is performed by using a viable count method. The result is shown as FIG. 4.
(§7) A microecological preparation used as one of green feed additives is widely applied to the feed, wherein a composite microecological preparation prepared from Saccharomycetes, Lactic Acid Bacteria and Bacillus is more common, not only can degrade and soften crude fibers and increase the content of proteins, but also can improve the palatability of the feed, regulate the intestinal microecological balance of the animals and promote digestive absorption and growth. Saccharomyces cerevisiae, Pediococcus pentosaceus, Enterococcus faecium, Lactobacillus plantarum and Bacillus subtilis are selected as a study object to study the influences of the lactein R16 on Saccharomyces cerevisiae, Pediococcus pentosaceus, Enterococcus faecium, Lactobacillus plantarum and Bacillus subtilis, and the result is shown as FIG. 4.

[9] = test system: Enterococcus faecium; test: Influences on probiotics, viable count; type: cell-based; settings: MRS medium with 6.4 mg·mL^−1, 37° C.
Experimental: as §6, §7

[10] = test system: Bacillus subtilis; test: Influences on probiotics, viable count; type: cell-based; settings: MRS medium with 6.4 mg·mL^−1, 37° C.
Experimental: as §6, §7

[11] = test system: Lactobacillus plantarum; test: Influences on probiotics, viable count; type: cell-based; settings: MRS medium with 6.4 mg·mL^−1, 37° C., 24 h
Experimental: as §6, §7

[12] = test system: Pediococcus pentosaceus; test: Influences on probiotics, viable count; type: cell-based; settings: MRS medium with 6.4 mg·mL^−1, 37° C., 24 h
Experimental: as §6, §7

[13] = test system: Staphylococcus aureus ATCC 6538; type: cell-based
Experimental: as §2, §3, §4, §5

[14] = test system: Escherichia coli; test: Thermal stability of lactein R16 (antimicrobial experiment after heat treatment); type: physicochemical
Experimental: 8 parts of purified active substance lactein R16 with the concentration of 100 mg·mL^−1 is selected and is respectively treated at 40° C., 50° C., 60° C., 70° C., 80° C., 90° C. and 100° C. for 30 min and is subjected to high-pressure sterilization at 121° C. for 15 min, and an antimicrobial experiment is performed to observe the inhibition of the lactein R16 to Escherichia coli. The result is shown as FIG. 3.
The antimicrobial activity of the lactein R16 is lost by 59.98% after the lactein R16 is treated at 121° C. for 15 min.

[15] = test system: Escherichia coli ATCC 25922; test: Antimicrobial spectrum, oxford-cup method; type: cell-based; set-up: key: “+++” represents for strong inhibition; “++” represents for relatively strong inhibition; “+” represents for inhibition; “−” represents for no inhibition; settings: 100 mg·mL^−1, oxford-cup
Experimental: (§8) 8 parts of purified active substance lactein R16 with the concentration of 100 mg·mL^−1 is selected, and an inhibiting effect of the lactein R16 on Escherichia coli, Listeria monocytogenes and Staphylococcus aureus is detected by using an oxford-cup method.

[16] = test system: Listeria monocytogenes CMCC(B)54002; test: Antimicrobial spectrum, oxford-cup method; type: cell-based; set-up: key to Antimicrobial level: “+++” represents for strong inhibition; “++” represents for relatively strong inhibition; “+” represents for inhibition; “−” represents for no inhibition; settings: 100 mg·mL^−1, oxford-cup
Experimental: as §8

[17] = test system: Escherichia coli JM109; test: Antimicrobial spectrum, oxford-cup method; type: cell-based; set-up: key to Antimicrobial level: “+++” represents for strong inhibition; “++” represents for relatively strong inhibition; “+” represents for inhibition; “−” represents for no inhibition; settings: 100 mg·mL^−1, oxford-cup
Experimental: as §8

[18] = test system: Staphylococcus aureus ATCC 6538; test: Antimicrobial spectrum, oxford-cup method; type: cell-based; set-up: key to Antimicrobial level: “+++” represents for strong inhibition; “++” represents for relatively strong inhibition; “+” represents for inhibition; “−” represents for no inhibition; settings: 100 mg·mL^−1, oxford-cup
Experimental: as §8

[19] = test system: Escherichia coli K99; test: Antimicrobial spectrum, oxford-cup method; type: cell-based; set-up: key to Antimicrobial level: “+++” represents for strong inhibition; “++” represents for relatively strong inhibition; “+” represents for inhibition; “−” represents for no inhibition; settings: 100 mg·mL^−1, oxford-cup
Experimental: as §8

In the case of ENGEEE [lactein R16, ENGEEE], the clearance rate [1] is reported as 70.13%, the clearance rate [2] is reported as 10.11% and the clearance rate [3] is reported as 25.65%. The MIC [4] was 6400 µg/mL, the “pH at which the antimicrobial activity reaches the maximum” value ([5]; 100 mg·mL^−1, pH 1.0-10.0, 37° C. water bath 2 h, then pH 4.5, inhibition of Escherichia coli) was 3.0-5.0 and the residual activity ([5]; pH 6.0-8.0, 37° C. 2 h, inhibition of Escherichia coli) was “about 75%”. The pH stability ([5]; summary statement) was “good”, the “amount of Escherichia coli after fermentation” value ([6]; 0.512 g in 40 g soybean meal, material-to-liquid ratio 1:0.8, 37° C., 1380·100 g^−1 before fermentation) was 123 ·100 g^−1 and the removal rate ([6]; material-to-liquid ratio 1:0.8, 0.512 g in 40 g soybean meal) was 33.44%. The removal rate ([6]; material-water ratio 1:0.12, 0.512 g in 40 g soybean meal) was 56.64%, the clearance rate [7] was 79.42% and the “amount of Saccharomyces cerevisiae increased as comparison with contrast” value [8] was 24.50%. The “effect on Saccharomyces cerevisiae (in words)” value [8] was “a certain effect on proliferating”, the “total bacterial count after growing for 24 h” value [9] was “about 10^8 CFU·mL^−1” and the “total bacterial count reduced as comparison with contrast” value ([9]; 24 h) was 6.92%. The “total bacterial count after growing for 24 h” value [10] was “about 10^8 CFU·mL^−1”, the “total bacterial count reduced as comparison with contrast” value ([10]; 24 h) was 4.03% and the “effect on Lactobacillus plantarum (in words)” value [11] was “a certain effect on proliferating”. The “change of total bacterial count as comparison with contrast” value [12] was “no obvious changes”, the MIC ([13]; ATCC 6538) was 3400 µg/mL and the MIC ([13]; LB medium, 37° C., 18-24 h) was 3200 µg/mL. For the same substance, the “activity retained in the process of pelletizing” value ([14]; pelletizing at 75-85° C. for 1-2 min) was “completely retained”, the thermal stability ([14]; summary statement) was “good” and the “change of antimicrobial activity” value ([14]; treated at 40, 50, 60, 70 and 80° C. for 30 min, 100 mg·mL^−1) was “no obvious changes”. It also gave an antimicrobial activity lost ([14]; treated at 90° C. for 30 min) of 21.95%, an antimicrobial activity lost ([14]; treated at 100° C. for 30 min) of 49.47% and an antimicrobial activity lost ([14]; treated at 121° C. for 15 min (high-pressure sterilization)) of 59.98%. For the same substance, the Antimicrobial level [15] was “+”, the Antimicrobial level [16] was “++” and the “antimicrobial activity (in words)” value [16] was “relatively strong antimicrobial activity”. The Antimicrobial level [17] was “++”, the “antimicrobial activity (in words)” value [17] was “relatively strong antimicrobial activity” and the Antimicrobial level [18] was “+++”. The “antimicrobial activity (in words)” value [18] was “strongest”, the Antimicrobial level [19] was “++” and the “antimicrobial activity (in words)” value [19] was “relatively strong antimicrobial activity”.
